Our source for the TGI values is PubChem BioAssay (NCI).

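The compound was tested at five concentrations on cells cultured in 96-well plates, with a 48-hour exposure period. TGI: concentration producing complete growth inhibition.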 Where a SMILES comes first, the peptide text is derived from it. The star is where a group is joined. Cbz = O=C(OCc1ccccc1)*; OBn = c1ccc(CO*)cc1

Among the test systems are HS 578T breast; SN12C renal; EKVX NSCLC; M14 melanoma; MOLT-4 leukemia; U251 CNS; KM12 colon; OVCAR-8 ovarian; T-47D breast; BT-549 breast.
Assay in all cases: inhibition of tumour cell growth, NCI panel, 48 h

Regarding `CC(C)OP(=O)(OC(C)C)C(C(C)C)N(C)/C(N)=N\C1=NC(C(F)(F)F)(C(F)(F)F)N=C(C(C(F)(F)F)C(F)(F)F)O1` (stereo not given), the TGI in the assay with HS 578T breast was > 100 µM; with SN12C renal, 10.5 µM; with EKVX NSCLC, 16.1 µM; with M14 melanoma it was 4.23 µM; with MOLT-4 leukemia, 4.78 µM; in the assay on U251 CNS it was 11.2 µM. Further, the TGI was determined as 14 µM in the assay on KM12 colon, 5.28 µM with OVCAR-8 ovarian, 31.3 µM in the assay on T-47D breast and 8.2 µM with BT-549 breast.
Take `COc1cc2c(cc1OC)-c1[nH]c3ccc(C#N)cc3c1CC(=O)N2`: the TGI with HS 578T breast, with SN12C renal, in the assay with EKVX NSCLC, in the assay on M14 melanoma, in the assay with MOLT-4 leukemia and in the assay with U251 CNS was > 100 µM each time. The TGI in the assay with KM12 colon, in the assay on OVCAR-8 ovarian, in the assay on T-47D breast and in the assay on BT-549 breast was > 100 µM each time.
With `COC(=O)[C@H](Cc1ccccc1)NC(=O)NCCN(CCNC(=O)N[C@@H](Cc1ccccc1)C(=O)OC)C(=O)N[C@@H](Cc1ccccc1)C(=O)OC`, the TGI with HS 578T breast was 45.3 µM; with EKVX NSCLC, > 61.7 µM; with M14 melanoma, 45.7 µM; in the assay with MOLT-4 leukemia it was 45 µM; with U251 CNS it was 41.2 µM; in the assay on KM12 colon it was 39.5 µM. In addition, the TGI with OVCAR-8 ovarian was 34.6 µM; with T-47D breast it was 49.6 µM; in the assay on BT-549 breast, 39.2 µM.
On to `CC1C2CC(CC(=O)N2)C1(C)C` (stereo not given), for which the TGI with HS 578T breast, in the assay with SN12C renal, in the assay with EKVX NSCLC, in the assay on M14 melanoma, in the assay on U251 CNS and in the assay with KM12 colon was > 100 µM in each case. Besides, the TGI in the assay on OVCAR-8 ovarian, in the assay on T-47D breast and with BT-549 breast was > 100 µM throughout.
Turning to `NC(=O)C(Nc1c(Cl)cccc1Cl)c1cc2cc(Br)ccc2nc1Cl` (stereo not given), the TGI in the assay on HS 578T breast was > 100 µM; in the assay with SN12C renal it was > 100 µM; in the assay on EKVX NSCLC, > 100 µM; in the assay on M14 melanoma it was > 100 µM; in the assay with MOLT-4 leukemia, 57.6 µM; in the assay on KM12 colon, > 100 µM. The TGI in the assay on OVCAR-8 ovarian, in the assay on T-47D breast and in the assay with BT-549 breast was > 100 µM throughout.
Turning to `COc1cc(OCc2ccc3nc(-c4ccccc4)c(N)nc3c2)cc(OC)c1OC`, the TGI was 78.3 µM with HS 578T breast; > 100 µM in the assay on SN12C renal; 50.2 µM with EKVX NSCLC; 29.3 µM in the assay with M14 melanoma; 28.8 µM with MOLT-4 leukemia; > 100 µM with U251 CNS. Moreover, the TGI came to 36.7 µM in the assay with KM12 colon, 72.3 µM with OVCAR-8 ovarian, 42.5 µM in the assay with T-47D breast and 49 µM with BT-549 breast.
Turning to `CSC1=N[C@H](c2ccccc2)CS1`, the TGI in the assay on HS 578T breast, in the assay on SN12C renal, with EKVX NSCLC, with M14 melanoma, in the assay on MOLT-4 leukemia and in the assay with U251 CNS was > 100 µM throughout. For the same compound, the TGI with KM12 colon, in the assay with T-47D breast and in the assay with BT-549 breast was > 100 µM throughout.
Turning to `CC(C)=CCOc1cc(NC(=S)c2ccoc2C)ccc1Cl`, the TGI with HS 578T breast, with SN12C renal, with EKVX NSCLC, in the assay with MOLT-4 leukemia, with U251 CNS and with KM12 colon was > 100 µM throughout. The TGI with OVCAR-8 ovarian, in the assay with T-47D breast and with BT-549 breast was > 100 µM throughout.
Consider `C=C(c1ccccc1)C1ON(C)CCc2cc(OC)c(OC)cc21` (stereo not given), for which the TGI in the assay with HS 578T breast, with SN12C renal, in the assay on EKVX NSCLC, in the assay with M14 melanoma, in the assay with MOLT-4 leukemia and in the assay on U251 CNS was > 100 µM each time. The TGI in the assay with KM12 colon, with OVCAR-8 ovarian, in the assay on T-47D breast and with BT-549 breast was > 100 µM in each case.
As to `Oc1ccccc1/C=N/Nc1nnc2c3ccccc3c3ccccc3c2n1`, the TGI in the assay with HS 578T breast, in the assay with SN12C renal, in the assay with EKVX NSCLC, with M14 melanoma, in the assay with MOLT-4 leukemia and with U251 CNS was > 100 µM each time. Moreover, the TGI in the assay on KM12 colon, in the assay with OVCAR-8 ovarian, with T-47D breast and in the assay on BT-549 breast was > 100 µM in each case.
For `COc1cc(Br)c(OC)c2c(OC)cc(C)cc12`, the TGI in the assay on HS 578T breast, in the assay on SN12C renal, with M14 melanoma, in the assay with MOLT-4 leukemia, in the assay with U251 CNS and in the assay on KM12 colon was > 100 µM each time. The TGI with OVCAR-8 ovarian, in the assay with T-47D breast and with BT-549 breast was > 100 µM each time.
With `COc1ccc(Br)c2c1CC(C(=O)O)CC2` (stereo not given), the TGI in the assay on HS 578T breast, in the assay with SN12C renal, with EKVX NSCLC, with M14 melanoma, with MOLT-4 leukemia and in the assay with U251 CNS was > 100 µM in each case. In addition, the TGI with KM12 colon, in the assay on OVCAR-8 ovarian, with T-47D breast and in the assay with BT-549 breast was > 100 µM throughout.
For the compound `Nc1ccn(C2CC(O)C(COP(O)(=S)OC3CC(n4ccc(N)nc4=O)OC3CO)O2)c(=O)n1` (stereo not given), the TGI in the assay on HS 578T breast, in the assay on SN12C renal, with EKVX NSCLC, with M14 melanoma, in the assay with MOLT-4 leukemia and in the assay on U251 CNS was > 100 µM in each case. In addition, the TGI in the assay with KM12 colon, in the assay on OVCAR-8 ovarian, in the assay with T-47D breast and with BT-549 breast was > 100 µM in each case.
Regarding `CCCCCC(=O)Nc1n[nH]nc1C(N)=O`, the TGI in the assay with HS 578T breast, in the assay on SN12C renal, in the assay on EKVX NSCLC, with M14 melanoma, in the assay with MOLT-4 leukemia and in the assay on U251 CNS was > 100 µM in each case. For the same compound, the TGI with KM12 colon, with OVCAR-8 ovarian, with T-47D breast and with BT-549 breast was > 100 µM each time.
As for `C[C@@]12C=CC3C/C(=N\C(N)=S)C=C(CCCC4OCCO4)[C@]3(CC1)C2` (stereo not given in full), the TGI is 72.5 µM in the assay with HS 578T breast; 30.8 µM with SN12C renal; 40.6 µM with EKVX NSCLC; 30.9 µM in the assay on M14 melanoma; 59.2 µM in the assay on MOLT-4 leukemia; 48.4 µM with U251 CNS. For the same compound, the TGI in the assay with KM12 colon was > 100 µM; in the assay with OVCAR-8 ovarian, 68.1 µM; in the assay with T-47D breast it was 57.9 µM; with BT-549 breast, 51.9 µM.
On to `CC1=NC(=O)C(C)(c2ccccc2)N1CCc1ccccc1` (stereo not given), for which the TGI is > 100 µM in the assay on HS 578T breast; > 100 µM with SN12C renal; > 100 µM with EKVX NSCLC; > 100 µM in the assay on M14 melanoma; 94.7 µM with MOLT-4 leukemia; > 100 µM in the assay on U251 CNS. In addition, the TGI in the assay on KM12 colon, in the assay with OVCAR-8 ovarian, with T-47D breast and in the assay on BT-549 breast was > 100 µM throughout.
`O=C1c2cc3c(cc2CC12Cc1cc4c(cc1C2=O)CCCC4)CCCC3`: the TGI with HS 578T breast was 72.5 µM; with SN12C renal it was > 100 µM; in the assay with EKVX NSCLC, > 100 µM; in the assay with M14 melanoma, > 100 µM; in the assay with MOLT-4 leukemia it was > 100 µM; in the assay on U251 CNS, > 100 µM. The TGI in the assay with KM12 colon was > 100 µM; with OVCAR-8 ovarian, > 100 µM; with T-47D breast, 89.1 µM; in the assay on BT-549 breast, > 100 µM.
Regarding `O=C(O)C(=C\c1ccc2c(c1)OCO2)/C(=C/c1ccc2c(c1)OCO2)C(=O)O`, the TGI in the assay on HS 578T breast, with SN12C renal, in the assay on M14 melanoma, with MOLT-4 leukemia, in the assay with U251 CNS and with KM12 colon was > 100 µM each time. Moreover, the TGI with OVCAR-8 ovarian, with T-47D breast and in the assay on BT-549 breast was > 100 µM in each case.
`CCOC(=O)c1nc2ccc(C(F)(F)F)cc2nc1NCc1ccc(Cl)c(Cl)c1`: the TGI in the assay with HS 578T breast was 80.7 µM; in the assay on EKVX NSCLC, > 100 µM; in the assay with M14 melanoma it was > 100 µM; in the assay on MOLT-4 leukemia it was > 100 µM; in the assay on U251 CNS, > 100 µM; in the assay with KM12 colon, > 100 µM. Further, the TGI in the assay on OVCAR-8 ovarian, in the assay on T-47D breast and in the assay with BT-549 breast was > 100 µM throughout.
For the compound `COC(=O)CNC(=O)C(C)NC(=O)C(CC(=O)OCc1ccccc1)NC(=O)OCc1ccccc1` (stereo not drawn) (Cbz-Asp(OBn)-Ala-Gly-OMe; configuration not given here), the TGI in the assay on HS 578T breast, in the assay with SN12C renal, in the assay with M14 melanoma, with MOLT-4 leukemia, in the assay with U251 CNS and in the assay on KM12 colon was > 100 µM each time. For the same compound, the TGI with OVCAR-8 ovarian is > 100 µM; with T-47D breast, 70.3 µM; with BT-549 breast it was > 100 µM.
For the compound `NC1CC(=O)c2cc(Cl)sc21` (stereo not given), the TGI in the assay on HS 578T breast, in the assay with SN12C renal, in the assay on EKVX NSCLC, in the assay with M14 melanoma, in the assay on U251 CNS and with KM12 colon was > 100 µM each time. In addition, the TGI in the assay with OVCAR-8 ovarian, in the assay on T-47D breast and in the assay on BT-549 breast was > 100 µM each time.
